Where a SMILES comes first, the peptide text is derived from it. The star is where a group is joined. Palmitoyl = CCCCCCCCCCCCCCCC(=O)*
System: HaCaT cells
Experiment: Cell viability assay (MTT) for in vitro skin irritation of active ingredients
Assay type: cell-based, human
Conditions: for Cell viability(%): MTT
Procedure: HaCaT cells, a human keratinocyte cell line, are used as the in vitro model to test any irritation effect of the active ingredients used in the polymeric solution to form the microdepot delivery system of the present invention. The following is the procedures of an MTT assay for testing any skin irritation effect of the active ingredients used in the polymeric solution of the present invention: • a) 12 mM MTT stock solution is prepared by adding 1 mL of sterile PBS into one 5 mg vial of MTT (Component A) and mixed by sonication until the vial of MTT is dissolved in the PBS; • b) HaCaT cells at 5,000 cells per well are seed into a 96-well plate and incubated at 37° C. in 5% CO2 for 24 to 48 hours until the cells become adherent; • c) Culture medium in each well is removed and replaced with 100 μL of test compound (e.g., active ingredient used in the polymeric solution of the present invention); • d) 10 μL of the MTT stock solution prepared in step (a) is added to each well; a negative control containing 100 μL of culture medium and 10 μL of the MTT stock solution is also included for comparison; • e) Both test samples and negative control prepared in step (d) are incubated at 37° C. for 4 hours; • f) 25 μL of the solution is removed from each well after incubation in step (e) followed by adding 50 μL of DMSO to each well and mix thoroughly by pipette; • g) The mixture in step (f) is incubated at 37° C. for 10 minutes; • h) The mixture in each well after the incubation in step (g) is mixed again before measuring absorbance at 540 nm; • i) The mixture is subject to a spectrophotometer to measure the absorbance at 540 nm.
The cell viability of HaCaT cells with the treatment of the test compound is calculated based on the following formula:
[formula] where ^OD(1) is the absorbance of culture medium only; ^OD(2) is the absorbance of the culture medium with the cells; ^OD(3) is the absorbance of the culture medium with the test compound; and ^OD(4) is the absorbance of the culture medium with the cells and test compound.

With NC(=O)c1cccnc1 [Niacinamide, reference compound] the “Cell viability(%)” value (test compound 2%) was 115%, the “Cell viability(%)” value (test compound 4%) was 91.34% and the “Cell viability(%)” value (test compound 6%) was 77.44%. For the same compound, the “Cell viability(%)” value (test compound 8%) was 84.08%, the “Cell viability(%)” value (test compound 10%) was 80.43% and the “cytotoxicity (viability higher than or equal to control)” value (“cytotoxicity” for short) (at 2%) was “non-cytotoxic”.

GHK-Cu was tested, and the “Cell viability(%)” value (test compound 0.2%) was 135.1%, the “Cell viability(%)” value (test compound 0.5%) was 139.6% and the “Cell viability(%)” value (test compound 1%) was 144.6%. For the same compound, the “Cell viability(%)” value (test compound 2%) was 132.7%, the “Cell viability(%)” value (test compound 5%) was 136.1% and the “cytotoxicity” value (concentrations ranging from 0.2% to 5%) was “non-cytotoxic”.

For CCCCCCCCCCCCCCCC(=O)N[C@@H](CCCCN)C(=O)N[C@H](C(=O)N[C@H](C(=O)N[C@@H](CCCCN)C(=O)N[C@@H](CO)C(=O)O)[C@@H](C)O)[C@@H](C)O [Pal-KTTKS] (Palmitoyl-KTTKS-OH), the “Cell viability(%)” value (test compound 3%) was 119%, the “Cell viability(%)” value (test compound 4%) was 135.1% and the “Cell viability(%)” value (test compound 5%) was 122.6%. The “Cell viability(%)” value (test compound 8%) was 141.9%, the “Cell viability(%)” value (test compound 10%) was 127.8% and the “cytotoxicity” value (concentrations ranging from 3% to 10%) was “non-cytotoxic”.

Reference: patent publication US9833405B2, “Biodegradable microdepot delivery system for topical delivery” (Nano and Advanced Materials Institute Limited, priority 2014, dated 2017)
